Each structure is given as a SMILES string. Some results are limits rather than exact numbers.

The experiment deals with T1, Recombinant human ASK1 kinase (Homo sapiens, UniProt Q99683).
T1 construct: purchased Invitrogen Inc
T1 sequence (Q99683 1-1374): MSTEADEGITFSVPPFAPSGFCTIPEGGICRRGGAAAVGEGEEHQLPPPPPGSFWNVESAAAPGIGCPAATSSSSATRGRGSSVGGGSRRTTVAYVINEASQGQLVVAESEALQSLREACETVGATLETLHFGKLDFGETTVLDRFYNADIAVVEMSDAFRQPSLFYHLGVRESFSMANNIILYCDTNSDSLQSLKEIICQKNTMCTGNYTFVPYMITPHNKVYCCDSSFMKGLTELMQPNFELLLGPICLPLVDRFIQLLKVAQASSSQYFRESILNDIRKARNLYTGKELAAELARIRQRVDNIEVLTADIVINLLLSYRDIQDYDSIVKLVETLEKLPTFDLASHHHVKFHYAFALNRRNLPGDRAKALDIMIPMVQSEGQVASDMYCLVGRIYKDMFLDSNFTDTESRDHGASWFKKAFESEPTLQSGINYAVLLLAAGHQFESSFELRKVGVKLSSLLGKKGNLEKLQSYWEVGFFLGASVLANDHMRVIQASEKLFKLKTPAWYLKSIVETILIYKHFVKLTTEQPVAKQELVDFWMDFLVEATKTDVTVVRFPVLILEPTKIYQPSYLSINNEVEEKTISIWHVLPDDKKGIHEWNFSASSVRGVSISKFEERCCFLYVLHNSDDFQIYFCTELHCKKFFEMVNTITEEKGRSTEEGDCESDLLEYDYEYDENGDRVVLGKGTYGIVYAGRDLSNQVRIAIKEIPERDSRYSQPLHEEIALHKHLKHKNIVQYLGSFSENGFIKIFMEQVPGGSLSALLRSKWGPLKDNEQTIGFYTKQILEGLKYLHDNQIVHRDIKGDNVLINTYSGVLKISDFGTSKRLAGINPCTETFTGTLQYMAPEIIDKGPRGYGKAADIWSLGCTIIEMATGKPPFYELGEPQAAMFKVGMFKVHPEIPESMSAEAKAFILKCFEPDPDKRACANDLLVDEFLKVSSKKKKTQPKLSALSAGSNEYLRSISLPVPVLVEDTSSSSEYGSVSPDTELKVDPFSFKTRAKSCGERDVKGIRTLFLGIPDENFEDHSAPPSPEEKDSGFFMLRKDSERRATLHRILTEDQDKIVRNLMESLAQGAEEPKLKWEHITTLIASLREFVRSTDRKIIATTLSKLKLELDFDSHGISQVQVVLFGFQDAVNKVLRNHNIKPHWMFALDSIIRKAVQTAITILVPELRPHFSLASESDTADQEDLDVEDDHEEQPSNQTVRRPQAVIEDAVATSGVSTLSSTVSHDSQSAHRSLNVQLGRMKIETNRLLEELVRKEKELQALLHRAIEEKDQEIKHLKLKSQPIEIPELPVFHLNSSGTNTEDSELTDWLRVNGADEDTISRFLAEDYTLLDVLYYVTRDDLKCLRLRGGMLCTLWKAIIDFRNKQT
The experiment can be described thus: ASK1 kinase HTRF assay (HTRF KinEASE-STK, phosphorylation of biotinylated peptide substrate). As to conditions: 3 nM ASK1 kinase, 1 uM STK-substrate-biotin, HTRF detection; read-out: EC50. Format: biochemical. In a few lines: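 HTRF KinEASE-STK read-out of biotinylated peptide phosphorylation. Compound incubated with 3 nM ASK1 and 1 uM STK-substrate-biotin in kinase buffer containing 5 mM MgCl2 and 1 mM DTT.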
(In general: In TR-FRET formats the signal depends on donor and acceptor labels being close together.)
In the case of `CC(C)n1cnnc1-c1cccc(NC(=O)Nc2ncccc2C(F)(F)F)n1` [Compound I-193], the EC50 was < 50 nM. On to `CC(C)n1cnnc1-c1cccc(NC(=O)Nc2ccc(C(F)(F)F)cn2)n1` [Compound I-195], for which the half-maximal effective concentration (EC50) is < 50 nM. For `CC(C)n1cnnc1-c1cccc(NC(=O)Nc2cccc(C(F)(F)F)n2)n1` [Compound I-196], the half-maximal effective concentration (EC50) was < 50 nM. `CC(C)n1cnnc1-c1cccc(NC(=O)Nc2cc(C#N)ccn2)n1` [Compound I-198]: the half-maximal effective concentration (EC50) was < 50 nM. In the case of `CC(C)n1cnnc1-c1cccc(NC(=O)Nc2ccc(C#N)cn2)n1` [Compound I-199] it was < 50 nM. As for `CC(C)n1cnnc1-c1cccc(NC(=O)Nc2cccc(C#N)n2)n1` [Compound I-200], the concentration for a half-maximal effect (EC50) is < 50 nM. Take `CC(C)n1cnnc1-c1cccc(NC(=O)Nc2ncccc2C(=O)O)n1` [Compound I-201]: the EC50 was in the range of 50 to 500 nM. In the case of `CC(C)n1cnnc1-c1cccc(NC(=O)Nc2cc(C(=O)O)ccn2)n1` [Compound I-202, 2-(3-(6-(4-Isopropyl-4H-1,2,4-triazol-3-yl)pyridin-2-yl)ureido)isonicotinic acid] it was < 50 nM; in that of `CC(C)n1cnnc1-c1cccc(NC(=O)Nc2cc(S(C)(=O)=O)ccn2)n1` [Compound I-204], < 50 nM. In the case of `CC(C)n1cnnc1-c1cccc(NC(=O)Nc2cc(S(N)(=O)=O)ccn2)n1` [Compound I-205] it was < 50 nM. To `CC(C)n1cnnc1-c1cccc(NC(=O)Nc2cc(S(=O)(=O)N3CCCCC3)ccn2)n1` [Compound I-206] belongs < 50 nM; to `CC(C)n1cnnc1-c1cccc(NC(=O)Nc2cc(S(=O)(=O)N3CCOCC3)ccn2)n1` [Compound I-207], < 50 nM; to `CC(C)n1cnnc1-c1cccc(NC(=O)Nc2ccc(CO)cn2)n1` [Compound I-208], < 50 nM.

With `CC(C)n1cnnc1-c1cccc(NC(=O)Nc2ccc(N)cn2)n1` [Compound I-209], the EC50 was < 50 nM. Regarding `CC(C)n1cnnc1-c1cccc(NC(=O)Nc2ccc([N+](=O)[O-])cn2)n1` [Compound I-210], the EC50 is < 50 nM. In the case of `Cc1cnc(NC(=O)Nc2cccc(-c3nncn3C(C)C)n2)nc1` [Compound I-211], the EC50 was < 50 nM. With `CC(C)n1cnnc1-c1cccc(NC(=O)Nc2ncccn2)n1` [Compound I-212], the EC50 was < 50 nM. In the case of `CC(C)n1cnnc1-c1cccc(NC(=O)Nc2cc(C(C)(C)O)ccn2)n1` [Compound I-213] it was < 50 nM; in that of `CC(C)n1cnnc1-c1cccc(NC(=O)Nc2ccc(C(C)(C)O)cn2)n1` [Compound I-214], < 50 nM; in that of `CC(C)n1cnnc1-c1cccc(NC(=O)Nc2ncco2)n1` [Compound I-215], < 50 nM. To `CC(C)n1cnnc1-c1cccc(NC(=O)Nc2nc3ccccc3o2)n1` [Compound I-216] belongs < 50 nM; to `C[C@H](CO)n1cnnc1-c1cccc(NC(=O)Nc2nc3ccccc3o2)n1` [Compound I-217], < 50 nM. To `CC(C)n1cnnc1-c1cccc(N2CCN(c3ccc(N4CCNCC4)cn3)C2=O)n1` [Compound V-01, 1-(6-(4-Isopropyl-4H-1,2,4-triazol-3-yl)pyridin-2-yl)-3-(5-(piperazin-1-yl)pyridin-2-yl)imidazolidin-2-one] belongs < 50 nM. For `CC(C)n1cnnc1-c1cccc(N2CCN(c3ccc(F)cn3)C2=O)n1` [Compound V-02], the EC50 was < 50 nM.

With `C[C@H](CO)n1cnnc1-c1cccc(N2CCN(c3ccc(F)cn3)C2=O)n1` [Compound V-03], the EC50 was < 50 nM. Take `C[C@H](CO)n1cnnc1-c1cccc(N2CCN(c3cc4ccccc4cn3)C2=O)n1` [Compound V-04]: the EC50 is < 50 nM. In the case of `CC(C)n1cnnc1-c1cccc(N2CCN(c3ccc(-c4ccccc4)cn3)C2=O)n1` [Compound V-05], the EC50 is < 50 nM. With `CC(C)n1cnnc1-c1cccc(N2CCN(c3ccc(-c4ccc(F)cc4)cn3)C2=O)n1` [Compound V-06], the EC50 is < 50 nM. On to `CC(C)n1cnnc1-c1cccc(N2CCN(c3ccc(-c4ccncc4)cn3)C2=O)n1` [Compound V-07], for which the EC50 is < 50 nM.

`C[C@H](CO)n1cnnc1-c1cccc(N2CCN(c3ccc(-c4ccccc4)cn3)C2=O)n1` [Compound V-08]: the concentration giving a half-maximal response (EC50) was < 50 nM. In the case of `CC(C)n1cnnc1-c1cccc(N2CCN(c3ccc(N4CCOCC4)cc3)C2=O)n1` [Compound V-11] it was < 50 nM; in that of `CC(C)n1cnnc1-c1cccc(N2CCN(c3ccc(N4CCOCC4)cn3)C2=O)n1` [Compound V-12], < 50 nM; in that of `CC(C)n1cnnc1-c1cccc(N2CCN(c3ccc(N4CCOC[C@@H]4C)cn3)C2=O)n1` [Compound V-14], < 50 nM. To `CC(C)n1cnnc1-c1cccc(N2CCN(c3ccc(N4CC5CCC(C4)O5)cn3)C2=O)n1` [Compound V-15] belongs < 50 nM; to `CC1CN(c2ccc(N3CCN(c4cccc(-c5nncn5C(C)C)n4)C3=O)nc2)CC(C)O1` (centres unmarked) [Compound V-16], < 50 nM.

For `CC1CN(c2ccc(N3CCN(c4cccc(-c5nncn5C(C)C)n4)C3=O)nc2)CCO1` (centres unmarked) [Compound V-17], the EC50 is < 50 nM.

For the compound `C[C@H](CO)n1cnnc1-c1cccc(N2CCN(c3ccc(N4CCOCC4)cn3)C2=O)n1` [Compound V-18], the EC50 is < 50 nM. Take `CC(=O)OC[C@@H](C)n1cnnc1-c1cccc(N2CCN(c3ccc(N4CCOCC4)cn3)C2=O)n1` [Compound V-19]: the EC50 was in the range of 50 to 500 nM.

For `C[C@H](CO)n1cnnc1-c1cccc(N2CCN(c3ccc(N4CCNCC4)cn3)C2=O)n1` [Compound V-22], the half-maximal effective concentration (EC50) was < 50 nM. Take `C[C@H](CO)n1cnnc1-c1cccc(N2CCN(c3ccc(C(=O)N4CCCCC4)cn3)C2=O)n1` [Compound V-23]: the EC50 is < 50 nM. Consider `CC(C)n1cnnc1-c1cccc(N2CCN(c3ccc(C(=O)N4CCOCC4)cn3)C2=O)n1` [Compound V-25], for which the EC50 is < 50 nM. In the case of `C[C@H](CO)n1cnnc1-c1cccc(N2CCN(c3ccc(C(=O)N4CCOCC4)cn3)C2=O)n1` [Compound V-26] it was < 50 nM; in that of `C[C@H](CO)n1cnnc1-c1cccc(N2CCN(c3ccc(C(=O)N4CCNCC4)cn3)C2=O)n1` [Compound V-27], < 50 nM.

Consider `Cc1ccc(N(C)C(=O)Nc2cccc(-c3nncn3C(C)C)n2)c(F)c1` [II-01, 1-(2-Fluoro-4-methylphenyl)-3-(6-(4-isopropyl-4H-1,2,4-triazol-3-yl)pyridin-2-yl)-1-methylurea], for which the EC50 is 500 to 5000 nM. To `Cc1ccc(-n2ccn(-c3cccc(-c4nncn4C(C)C)n3)c2=O)c(F)c1` [III-01, 3-(2-Fluoro-4-methylphenyl)-1-(6-(4-isopropyl-4H-1,2,4-triazol-3-yl)pyridin-2-yl)-1H-imidazol-2(3H)-one] belongs 50 to 500 nM. Take `CC(C)n1cnnc1-c1cccc(-n2ccn(-c3ccc(C(=O)N4CCCCC4)cn3)c2=O)n1` [III-02, 1-(6-(4-Isopropyl-4H-1,2,4-triazol-3-yl)pyridin-2-yl)-3-(5-(piperidine-1-carbonyl)pyridin-2-yl)-1H-imidazol-2(3H)-one]: the concentration giving a half-maximal response (EC50) is < 50 nM. Consider `CC(C)n1cnnc1-c1cccc(-n2ccn(-c3ccc(N4CCOCC4)cn3)c2=O)n1` [III-03, 1-(6-(4-Isopropyl-4H-1,2,4-triazol-3-yl)pyridin-2-yl)-3-(5-morpholinopyridin-2-yl)-1H-imidazol-2(3H)-one], for which the EC50 is < 50 nM. To `CC(C)n1cnnc1-c1cccc(-n2ccn(-c3ccc(N4CCNCC4)cn3)c2=O)n1` [III-04, 1-(6-(4-Isopropyl-4H-1,2,4-triazol-3-yl)pyridin-2-yl)-3-(5-(piperazin-1-yl)pyridin-2-yl)-1H-imidazol-2(3H)-one] belongs < 50 nM; to `Cc1ccc(-n2ccn(-c3cccc(-c4nncn4C(C)C)n3)c2=O)nc1` [III-05], < 50 nM; to `CC(C)n1cnnc1-c1cccc(-n2ccn(-c3ccc(-c4ccccc4)cn3)c2=O)n1` [III-06], < 50 nM.

As a reminder, the EC50 is the concentration that produces a half-maximal response.

For the origin of these results see patent US11427556B2, “Urea derivatives as inhibitors of ASK1” (Hepagene Therapeutics (HK) Limited, priority 2017, dated 2022).
